Experiment [1] deals with CD28-induced IL-2 production. The note with it: cited from earlier work.
Experiment [2] deals with CD4^+ T cells. Nature of the experiment: Long term growth of CD4+ T cells with coated beads (Example 19). In kind it is cell-based, human. As to conditions: CD4 and CD8^+ T cells. As for the experimental part: CD28^+ T cells were divided into the CD4 and CD8^+ T cell subsets as described in Example 13. […] No cytokine or feeder cells were added to these cultures, and the cultures were maintained as described in Example 1.

In the next experiment the test system is CD28^+ T cells. Nature of the experiment: Lymphokine production by CD28+ T cells, ELISA 24 h (Table 3). As to conditions: no CHO cells. In kind it is cell-based, human. As for the experimental part:
All values were assessed by using dilutions of culture supernatant that yielded read-outs within the linear portion of the standard curve. The cytokine production data is summarized below in Table 3.
On the technique in general: An ELISA detects its analyte on a solid surface through an enzyme-linked reagent.

Experiment [3] has as its system CD4^+ T cells. The experiment can be described thus: Lymphokine production by CD4+ T cells (Table 4). In kind it is cell-based, human. The text has this: (§1) To assess whether distinct T cell subsets might differentially respond to B7-1 or B7-2, CD28^+ T cells were divided into CD28^+CD4^+ and CD28^+CD8^+cells and into CD4^+CD45RO^+ and CD4^+CD45RA+subsets. To obtain CD28^+CD4^+ or CD28^+CD8^+ T cells, the CD28^+ T cells were subjected to a second round of negative selection using magnetic beads (Dynal) coated with CD8 or CD4 mAb as described in June et al. (1989) J. Immunol. 143:153. CD4^+CD45RO^+ and CD4^+CD45RA^+ subpopulations were isolated by subjecting CD28^+ T cells to negative selection using magnetic beads and anti-CD45RO monoclonal antibody UCHL1 or anti-CD45RA monoclonal antibody ALB11 (Immuntech). […]

A further experiment deals with CD8^+ T cells. Nature of the experiment: Lymphokine production by CD8+ T cells (Table 4). In kind it is cell-based, human.
Source text: as §1

Another experiment has as its target T1, human CD28 (human, UniProt P10747 19-220).
T1 construct: whole, on cells; also called CD28 on CHO-hh (CHO-HH) cells; CD28 on Jurkat #7 cells
Nature of the experiment: immunofluorescence on Jurkat cells (CD28+ CTLA4-).

On to `CO[C@H]1[C@@H](OC)C[C@H](C)[C@@H](OC)C2=CC(=O)C=C(NC(=O)/C(C)=C/C=C\[C@H](OC)[C@@H](OC(N)=O)/C(C)=C/[C@@H]1C)C2=O` [herbimycin A], for which the “effect on CD28-induced IL-2 production” value in experiment [1] was “can inhibit”.

As for OKT3 only: beads coated with OKT3 alone, the “time to death of the cells” value with CD4^+ T cells [2] is on record as at most 1 week.

For the molecule “αCD3 only: plastic immobilized anti-CD3 mAb (OKT3) alone”, in the experiment with CD28^+ T cells, the GM-CSF turned out to be 280 pg/mL, the IFN-γ was determined as 280 pg/mL, the IL-2 is below 60 pg/mL and the IL-4 is below 20 pg/mL. Besides, the TNFα in the experiment on CD28^+ T cells turned out to be 380 pg/mL. In the experiment with CD4^+ T cells [3], this molecule showed a GM-CSF of 9770 pg/mL, an IFN-γ of 1270 pg/mL and an IL-2 of 93 pg/mL. In the experiment on CD8^+ T cells, this molecule yielded a GM-CSF of 8900 pg/mL, an IFN-γ of 1620 pg/mL and an IL-2 of 133 pg/mL.

B1: human B7-2Ig fusion protein (Fc fusion)
chain: APLKIQAYFNETADLPCQFANSQNQSLSELVVFWQDQENLVLNEVYLGKEKFDSVHSKYMGRTSFDSDSWTLRLHNLQIKDKGLYQCIIHHKKPTGMIRIHQMNSELSVLANFSQPEIVPISNITENVYINLTCSSIHGYPEPKKMSVLLRTKNSTIEYDGIMQKSQDNVTELYDVSISLSVSFPDVTSNMTIFCILETDKTRLLSSPFSIELEDPQPPPDH
notes: not shown: Fc portion of human IgG1
Turning to B1, the binding result with human CD28 is listed as “binds”.

Source of the values: patent US6905680B2, “Methods of treating HIV infected subjects” (Genetics Institute, Inc., priority 1994, dated 2005).
